#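 Method: 48-hour compound exposure of cells in 96-well plates, five concentrations, linear interpolation of endpoints. GI50 is the concentration that inhibits growth by half.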 The source made the active and inactive calls. Rule as the data show it: active = GI50 up to about 1.1 µM and inactive = higher.
# Columns and labels:
# Experiment in all cases: growth of human tumour cells (NCI), 48 h
# 786-0 = test system: 786-0
# A498 = test system: A498
# A549 = test system: A549
# ACHN = test system: ACHN
# BT-549 = test system: BT-549
# CAKI-1 = test system: CAKI-1
# CCRF-CEM = test system: CCRF-CEM
# COLO 205 = test system: COLO 205
# DU-145 = test system: DU-145
# EKVX = test system: EKVX
# HCC 2998 = test system: HCC 2998
# HCT-116 = test system: HCT-116
# HCT-15 = test system: HCT-15
# HL-60 = test system: HL-60
# HOP-62 = test system: HOP-62
# HOP-92 = test system: HOP-92
# HT-29 = test system: HT-29
# Hs-578T = test system: Hs-578T
# IGROV-1 = test system: IGROV-1
# K562 = test system: K562
# KM12 = test system: KM12
# LOX IMVI = test system: LOX IMVI
# M14 = test system: M14
# MCF7 = test system: MCF7
# MDA-MB-231 = test system: MDA-MB-231
# MDA-MB-435 = test system: MDA-MB-435
# MDA-N = test system: MDA-N
# MOLT-4 = test system: MOLT-4
# Malme-3M = test system: Malme-3M
# NCI-H226 = test system: NCI-H226
# NCI-H23 = test system: NCI-H23
# NCI-H460 = test system: NCI-H460
# NCI-H522 = test system: NCI-H522
# NCI/ADR-RES = test system: NCI/ADR-RES
# OVCAR-3 = test system: OVCAR-3
# OVCAR-4 = test system: OVCAR-4
# OVCAR-8 = test system: OVCAR-8
# PC-3 = test system: PC-3
# RPMI-8226 = test system: RPMI-8226
# RXF 393 = test system: RXF 393
# SF-268 = test system: SF-268
# SF-295 = test system: SF-295
# SF-539 = test system: SF-539
# SK-MEL-28 = test system: SK-MEL-28
# SK-MEL-2 = test system: SK-MEL-2
# SK-MEL-5 = test system: SK-MEL-5
# SK-OV-3 = test system: SK-OV-3
# SN12C = test system: SN12C
# SNB-19 = test system: SNB-19
# SNB-75 = test system: SNB-75
# SR = test system: SR
# SW-620 = test system: SW-620
# T47D = test system: T47D
# TK-10 = test system: TK-10
# U-251 = test system: U-251
# UACC-257 = test system: UACC-257
# UACC-62 = test system: UACC-62
# UO-31 = test system: UO-31
# OVCAR-5 = test system: OVCAR-5
smiles,measurement,setting,value
Nc1nc(N)c(N=O)c(Nc2ccc(O)cc2)n1,GI50,786-0,> 55.7 µM (inactive)
same,GI50,A498,> 55.8 µM (inactive)
same,GI50,A549,> 81.3 µM (inactive)
same,GI50,ACHN,46.2 µM (inactive)
same,GI50,BT-549,> 40.4 µM (inactive)
same,GI50,CAKI-1,> 45.4 µM (inactive)
same,GI50,CCRF-CEM,14.9 µM (inactive)
same,GI50,COLO 205,57.5 µM (inactive)
same,GI50,DU-145,34.6 µM (inactive)
same,GI50,EKVX,> 69.8 µM (inactive)
same,GI50,HCC 2998,72.3 µM (inactive)
same,GI50,HCT-116,> 73.3 µM (inactive)
same,GI50,HCT-15,> 57.3 µM
same,GI50,HL-60,9.53 µM (inactive)
same,GI50,HOP-62,37.5 µM (inactive)
same,GI50,HOP-92,20.8 µM (inactive)
same,GI50,HT-29,18 µM (inactive)
same,GI50,Hs-578T,13.7 µM (inactive)
same,GI50,IGROV-1,7.82 µM (inactive)
same,GI50,K562,> 45.6 µM (inactive)
same,GI50,KM12,> 57.4 µM (inactive)
same,GI50,LOX IMVI,30.3 µM (inactive)
same,GI50,M14,6.05 µM (inactive)
same,GI50,MCF7,5.97 µM (inactive)
same,GI50,MDA-MB-231,> 58.3 µM (inactive)
same,GI50,MDA-MB-435,38.7 µM (inactive)
same,GI50,MDA-N,28.8 µM (inactive)
same,GI50,MOLT-4,16.1 µM (inactive)
same,GI50,Malme-3M,33.4 µM (inactive)
same,GI50,NCI-H226,23.7 µM (inactive)
same,GI50,NCI-H23,49.9 µM (inactive)
same,GI50,NCI-H460,> 61.1 µM (inactive)
same,GI50,NCI-H522,15.9 µM (inactive)
same,GI50,NCI/ADR-RES,1.58 µM (inactive)
same,GI50,OVCAR-3,47.2 µM (inactive)
same,GI50,OVCAR-4,> 48.8 µM (inactive)
same,GI50,OVCAR-8,32 µM (inactive)
same,GI50,PC-3,32.2 µM (inactive)
same,GI50,RPMI-8226,> 44.4 µM (inactive)
same,GI50,RXF 393,93.3 µM (inactive)
same,GI50,SF-268,38 µM (inactive)
same,GI50,SF-295,> 44.7 µM (inactive)
same,GI50,SF-539,6.56 µM (inactive)
same,GI50,SK-MEL-28,11.5 µM (inactive)
same,GI50,SK-MEL-2,> 62.1 µM (inactive)
same,GI50,SK-MEL-5,26.5 µM (inactive)
same,GI50,SK-OV-3,18.1 µM (inactive)
same,GI50,SN12C,31.1 µM (inactive)
same,GI50,SNB-19,> 52 µM (inactive)
same,GI50,SNB-75,18.2 µM (inactive)
same,GI50,SR,14.8 µM (inactive)
same,GI50,SW-620,> 60.5 µM (inactive)
same,GI50,T47D,14.9 µM (inactive)
same,GI50,TK-10,> 63 µM (inactive)
same,GI50,U-251,> 52 µM (inactive)
same,GI50,UACC-257,> 66.8 µM (inactive)
same,GI50,UACC-62,41 µM (inactive)
same,GI50,UO-31,41.5 µM (inactive)
C1CN(C23OC4(N5CCOCC5)C5C6CC(C7C6C4C72)C53)CCO1 (configuration not stated),GI50,786-0,> 100 µM (inactive)
same,GI50,A498,> 100 µM (inactive)
same,GI50,A549,> 100 µM (inactive)
same,GI50,ACHN,> 31.6 µM (inactive)
same,GI50,BT-549,> 100 µM (inactive)
same,GI50,CAKI-1,> 100 µM (inactive)
same,GI50,CCRF-CEM,> 100 µM (inactive)
same,GI50,COLO 205,> 100 µM (inactive)
same,GI50,DU-145,> 100 µM (inactive)
same,GI50,EKVX,> 100 µM (inactive)
same,GI50,HCC 2998,> 100 µM (inactive)
same,GI50,HCT-116,> 100 µM (inactive)
same,GI50,HCT-15,> 100 µM
same,GI50,HL-60,> 100 µM (inactive)
same,GI50,HOP-62,> 100 µM (inactive)
same,GI50,HOP-92,> 100 µM (inactive)
same,GI50,HT-29,> 100 µM (inactive)
same,GI50,Hs-578T,> 100 µM (inactive)
same,GI50,IGROV-1,> 100 µM (inactive)
same,GI50,K562,> 100 µM (inactive)
same,GI50,KM12,> 100 µM (inactive)
same,GI50,LOX IMVI,> 100 µM (inactive)
same,GI50,M14,> 100 µM (inactive)
same,GI50,MCF7,> 100 µM (inactive)
same,GI50,MDA-MB-231,> 100 µM (inactive)
same,GI50,MDA-MB-435,> 100 µM (inactive)
same,GI50,MDA-N,> 100 µM (inactive)
same,GI50,MOLT-4,> 100 µM (inactive)
same,GI50,Malme-3M,> 100 µM (inactive)
same,GI50,NCI-H226,> 100 µM (inactive)
same,GI50,NCI-H23,> 100 µM (inactive)
same,GI50,NCI-H460,> 100 µM (inactive)
same,GI50,NCI-H522,> 83.4 µM (inactive)
same,GI50,NCI/ADR-RES,> 100 µM (inactive)
same,GI50,OVCAR-3,> 100 µM (inactive)
same,GI50,OVCAR-4,> 100 µM (inactive)
same,GI50,OVCAR-5,> 100 µM (inactive)
same,GI50,OVCAR-8,> 100 µM (inactive)
same,GI50,PC-3,> 100 µM (inactive)
same,GI50,RPMI-8226,> 100 µM (inactive)
same,GI50,RXF 393,> 100 µM (inactive)
same,GI50,SF-268,> 100 µM (inactive)
same,GI50,SF-295,> 100 µM (inactive)
same,GI50,SF-539,> 100 µM (inactive)
same,GI50,SK-MEL-28,> 100 µM (inactive)
same,GI50,SK-MEL-2,> 100 µM (inactive)
same,GI50,SK-MEL-5,> 100 µM (inactive)
same,GI50,SK-OV-3,> 100 µM (inactive)
same,GI50,SN12C,> 100 µM (inactive)
same,GI50,SNB-19,> 100 µM (inactive)
same,GI50,SNB-75,> 70.8 µM (inactive)
same,GI50,SR,> 100 µM (inactive)
same,GI50,SW-620,> 100 µM (inactive)
same,GI50,T47D,> 100 µM (inactive)
same,GI50,TK-10,> 100 µM (inactive)
same,GI50,U-251,> 100 µM (inactive)
same,GI50,UACC-257,> 100 µM (inactive)
same,GI50,UACC-62,> 100 µM (inactive)
same,GI50,UO-31,> 100 µM (inactive)

# Source: ChEMBL document CHEMBL1201862, “PubChem BioAssay data set” (2004)
